pIC50: −log10 of the molar value.
Target: CK2A1 (CK2α/β) (Homo sapiens, UniProt P68400)
Test: CK2 kinase assay, CK2A1 (CK2α/β)
Assay type: biochemical
Conditions: Table A; read-out: CK2A1 (CK2α/β) (IC50)

Sequence of CK2A1 (CK2α/β) (P68400 whole entry, species assumed): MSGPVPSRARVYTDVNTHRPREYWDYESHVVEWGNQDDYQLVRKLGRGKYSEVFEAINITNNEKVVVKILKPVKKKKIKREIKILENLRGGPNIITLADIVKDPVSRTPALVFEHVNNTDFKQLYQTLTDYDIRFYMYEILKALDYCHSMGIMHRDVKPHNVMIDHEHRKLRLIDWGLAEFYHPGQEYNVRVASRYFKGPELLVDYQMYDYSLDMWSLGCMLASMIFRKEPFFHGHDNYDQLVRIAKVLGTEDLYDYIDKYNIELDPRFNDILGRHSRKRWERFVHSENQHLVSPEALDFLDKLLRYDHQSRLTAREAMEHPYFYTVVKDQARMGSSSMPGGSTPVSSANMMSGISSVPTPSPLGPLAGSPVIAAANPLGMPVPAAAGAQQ
Sequence of CK2A1 (CK2α/β) (P67870 whole entry partner, species assumed): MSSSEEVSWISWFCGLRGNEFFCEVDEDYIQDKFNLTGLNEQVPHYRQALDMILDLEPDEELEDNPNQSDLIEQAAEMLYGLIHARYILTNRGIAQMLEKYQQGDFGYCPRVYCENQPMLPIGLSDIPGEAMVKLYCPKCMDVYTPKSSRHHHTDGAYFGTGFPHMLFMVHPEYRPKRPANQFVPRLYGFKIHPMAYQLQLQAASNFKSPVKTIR

Structure (SMILES)	pIC50
CN(CC1CN(c2cc(C#N)cc(Nc3nc(NC4CC4)c4ncc(C#N)n4n3)c2Cl)CCO1)CC(C)(C)O (stereo not drawn) [Example 701, 2-{[2-chloro-5-cyano-3-(2-{[(2-hydroxy-2-methylpropyl)(methyl)amino]methyl}morpholin-4-yl)phenyl]amino}-4-(cyclopropylamino)imidazo[2,1-f][1,2,4]triazine-7-carbonitrile]	8.57
COCCN(C)CC1CN(c2cc(C#N)cc(Nc3nc(NC4CC4)c4ncc(C#N)n4n3)c2Cl)CCO1 (stereo not drawn) [Example 702, 2-{[2-chloro-5-cyano-3-(2-{[(2-methoxyethyl)(methyl)amino]methyl}morpholin-4-yl)phenyl]amino}-4-(cyclopropylamino)imidazo[2,1-f][1,2,4]triazine-7-carbonitrile]	8.61
CCNC(=O)OCC1CN(c2cc(C#N)cc(Nc3nc(NC4CC4)c4ncc(C#N)n4n3)c2Cl)CCN1C (stereo not drawn) [Example 703, [4-(2-chloro-5-cyano-3-{[7-cyano-4-(cyclopropylamino)imidazo[2,1-f][1,2,4]triazin-2-yl]amino}phenyl)-1-methylpiperazin-2-yl]methyl N-ethylcarbamate]	8.74
COC[C@H](NC[C@H]1CN(c2cc(C#N)cc(Nc3nc(NC4CC4)c4ncc(C#N)n4n3)c2Cl)CCO1)C1CC1 [Example 704, 2-({2-chloro-5-cyano-3-[(2S)-2-({[(1R)-1-cyclopropyl-2-methoxyethyl]amino}methyl)morpholin-4-yl]phenyl}amino)-4-(cyclopropylamino)imidazo[2,1-f][1,2,4]triazine-7-carbonitrile]	8.85
N#Cc1cc(Nc2nc(NC3CC3)c3ncc(C#N)n3n2)c(Cl)c(N2CCOC(CN3CC(F)C3)C2)c1 (stereo not drawn) [Example 705, 2-[(2-chloro-5-cyano-3-{2-[(3-fluoroazetidin-1-yl)methyl]morpholin-4-yl}phenyl)amino]-4-(cyclopropylamino)imidazo[2,1-f][1,2,4]triazine-7-carbonitrile]	9.05
COC[C@H](NC[C@H]1CN(c2cc(C#N)cc(Nc3nc(NC4CC4)c4ncc(C#N)n4n3)c2Cl)CCN1C)C1CC1 [Example 706, 2-({2-chloro-5-cyano-3-[(3S)-3-({[(1R)-1-cyclopropyl-2-methoxyethyl]amino}methyl)-4-methylpiperazin-1-yl]phenyl}amino)-4-(cyclopropylamino)imidazo[2,1-f][1,2,4]triazine-7-carbonitrile]	8.75
COCCN(C)CC1CN(c2cc(C#N)cc(Nc3nc(NC4CC4)c4ncc(C#N)n4n3)c2Cl)CCN1C (stereo not drawn) [Example 707, 2-{[2-chloro-5-cyano-3-(3-{[(2-methoxyethyl)(methyl)amino]methyl}-4-methylpiperazin-1-yl)phenyl]amino}-4-(cyclopropylamino)imidazo[2,1-f][1,2,4]triazine-7-carbonitrile]	8.87
CN1CCN(c2cc(C#N)cc(Nc3nc(NC4CC4)c4ncc(C#N)n4n3)c2Cl)CC1CN1CC(F)C1 (stereo not drawn) [Example 708, 2-[(2-chloro-5-cyano-3-{3-[(3-fluoroazetidin-1-yl)methyl]-4-methylpiperazin-1-yl}phenyl)amino]-4-(cyclopropylamino)imidazo[2,1-f][1,2,4]triazine-7-carbonitrile]	9.28
CC(C)(O)CNCC1CN(c2cc(C#N)cc(Nc3nc(NC4CC4)c4ncc(C#N)n4n3)c2Cl)CCO1 (stereo not drawn) [Example 709, 2-{[2-chloro-5-cyano-3-(2-{[(2-hydroxy-2-methylpropyl)amino]methyl}morpholin-4-yl)phenyl]amino}-4-(cyclopropylamino)imidazo[2,1-f][1,2,4]triazine-7-carbonitrile]	8.53
COC(=O)NCC1CN(c2cc(C#N)cc(Nc3nc(NC4CC4)c4ncc(C#N)n4n3)c2Cl)CCO1 (stereo not drawn) [Example 710, methyl N-{[4-(2-chloro-5-cyano-3-{[7-cyano-4-(cyclopropylamino)imidazo[2,1-f][1,2,4]triazin-2-yl]amino}phenyl)morpholin-2-yl]methyl}carbamate]	9.12
CCNC(=O)NCC1CN(c2cc(C#N)cc(Nc3nc(NC4CC4)c4ncc(C#N)n4n3)c2Cl)CCO1 (stereo not drawn) [Example 711, 1-{[4-(2-chloro-5-cyano-3-{[7-cyano-4-(cyclopropylamino)imidazo[2,1-f][1,2,4]triazin-2-yl]amino}phenyl)morpholin-2-yl]methyl}-3-ethylurea]	8.58
CC(=O)NCC1CN(c2cc(C#N)cc(Nc3nc(NC4CC4)c4ncc(C#N)n4n3)c2Cl)CCO1 (stereo not drawn) [Example 712, N-{[4-(2-chloro-5-cyano-3-{[7-cyano-4-(cyclopropylamino)imidazo[2,1-f][1,2,4]triazin-2-yl]amino}phenyl)morpholin-2-yl]methyl}acetamide]	8.93
COC(=O)NCC1CN(c2cc(C#N)cc(Nc3nc(NC4CC4)c4ncc(C#N)n4n3)c2Cl)CCN1C (stereo not drawn) [Example 713, methyl N-{[4-(2-chloro-5-cyano-3-{[7-cyano-4-(cyclopropylamino)imidazo[2,1-f][1,2,4]triazin-2-yl]amino}phenyl)-1-methylpiperazin-2-yl]methyl}carbamate]	8.26
CN1CC(N(C)C2CCN(c3cc(C#N)cc(Nc4nc(NC5CC5)c5ncc(C#N)n5n4)c3Cl)CC2)CC1=O (stereo not drawn) [Example 714, 2-((2-Chloro-5-cyano-3-(4-(methyl(1-methyl-5-oxopyrrolidin-3-yl)amino)piperidin-1-yl)phenyl)amino)-4-(cyclopropylamino)imidazo[2,1-f][1,2,4]triazine-7-carbonitrile]	7.35
CCN(C1CCN(c2cc(C#N)cc(Nc3nc(NC4CC4)c4ncc(C#N)n4n3)c2Cl)CC1)C1CC(=O)N(C)C1 (stereo not drawn) [Example 715, 2-[(2-chloro-5-cyano-3-{4-[ethyl(1-methyl-5-oxopyrrolidin-3-yl)amino]piperidin-1-yl}phenyl)amino]-4-(cyclopropylamino)imidazo [2,1-f][1,2,4]triazine-7-carbonitrile]	7.97
CC(C)N(C1CCN(c2cc(C#N)cc(Nc3nc(NC4CC4)c4ncc(C#N)n4n3)c2Cl)CC1)C1CC(=O)N(C)C1 (stereo not drawn) [Example 716, 2-[(2-chloro-5-cyano-3-{4-[(1-methyl-5-oxopyrrolidin-3-yl)(propan-2-yl)amino]piperidin-1-yl}phenyl)amino]-4-(cyclopropylamino)imidazo [2,1-f][1,2,4]triazine-7-carbonitrile]	7.49
Cc1nn(C)c(C)c1-c1cc(C#N)cc(Nc2nc(NC3CC3)c3ncc(C#N)n3n2)c1Cl [Example 717, 2-((2-chloro-5-cyano-3-(1,3,5-trimethyl-1H-pyrazol-4-yl)phenyl)amino)-4-(cyclopropylamino)imidazo[2,1-f][1,2,4]triazine-7-carbonitrile]	8.86
N#Cc1cc(Nc2nc(NC3CC3)c3ncc(C#N)n3n2)c(Cl)c(-c2cnn(CCN3CCOCC3)c2)c1 [Example 718, 2-[(2-chloro-5-cyano-3-{1-[2-(morpholin-4-yl)ethyl]-1H-pyrazol-4-yl}phenyl)amino]-4-(cyclopropylamino)imidazo [2,1-f][1,2,4]triazine-7-carbonitrile]	9.17
Cc1nn(CCN(C)C)c(C)c1-c1cc(C#N)cc(Nc2nc(NC3CC3)c3ncc(C#N)n3n2)c1Cl [Example 719, 2-[(2-chloro-5-cyano-3-{1-[2-(dimethylamino)ethyl]-3,5-dimethyl-1H-pyrazol-4-yl}phenyl)amino]-4-(cyclopropylamino)imidazo [2,1-f][1,2,4]triazine-7-carbonitrile]	8.13
CC(CCc1cc(Cl)c(Nc2nc(NC3CC3)c3ncc(C#N)n3n2)cc1C#N)N1CCOCC1 (stereo not drawn) [Example 720, 2-((2-chloro-5-cyano-4-(3-morpholinobutyl)phenyl)amino)-4-(cyclopropylamino)imidazo[2,1-f][1,2,4]triazine-7-carbonitrile]	8.61
CC(Cc1cc(Cl)c(Nc2nc(NC3CC3)c3ncc(C#N)n3n2)cc1C#N)CN1CCOCC1 (stereo not drawn) [Example 721, 2-({2-chloro-5-cyano-4-[2-(morpholin-4-ylmethyl)propyl]phenyl}amino)-4-(cyclopropylamino)imidazo [2,1-f][1,2,4]triazine-7-carbonitrile]	8.87
CC(O)CCc1cc(Cl)c(Nc2nc(NC3CC3)c3ncc(C#N)n3n2)cc1C#N (stereo not drawn) [Example 722, 2-{[2-chloro-5-cyano-4-(3-hydroxybutyl)phenyl]amino}-4-(cyclopropylamino)imidazo [2,1-f][1,2,4]triazine-7-carbonitrile]	9.80
CN1CCN(C(CO)CCc2cc(C#N)cc(Nc3nc(NC4CC4)c4ncc(C#N)n4n3)c2Cl)CC1 (stereo not drawn) [Example 723, 2-({2-chloro-5-cyano-3-[4-hydroxy-3-(4-methylpiperazin-1-yl)butyl]phenyl}amino)-4-(cyclopropylamino)imidazo [2,1-f][1,2,4]triazine-7-carbonitrile]	8.72
CC(CCc1cc(Cl)c(Nc2nc(NC3CC3)c3ncc(C#N)n3n2)cc1C#N)N1CC(O)C1 (stereo not drawn) [Example 724, 2-({2-chloro-5-cyano-4-[3-(3-hydroxyazetidin-1-yl)butyl]phenyl}amino)-4-(cyclopropylamino)imidazo [2,1-f][1,2,4]triazine-7-carbonitrile]	8.82
N#Cc1cc(Nc2nc(NC3CC3)c3ncc(C#N)n3n2)c(Cl)c([C@H]2CCC[C@@H](N3CC(F)C3)C2)c1 [Example 726, 2-({2-chloro-5-cyano-3-[(1S,3R)-3-(3-fluoroazetidin-1-yl)cyclohexyl]phenyl}amino)-4-(cyclopropylamino)imidazo [2,1-f][1,2,4]triazine-7-carbonitrile]	8.63
CN[C@@H]1CCC[C@H](c2cc(C#N)cc(Nc3nc(NC4CC4)c4ncc(C#N)n4n3)c2Cl)C1 [Example 727, 2-({2-chloro-5-cyano-3-[(1S,3R)-3-(methylamino)cyclohexyl]phenyl}amino)-4-(cyclopropylamino)imidazo [2,1-f][1,2,4]triazine-7-carbonitrile]	8.91
N#Cc1cc(Nc2nc(NC3CC3)c3ncc(C#N)n3n2)c(Cl)c([C@H]2CCC[C@H](NC[C@H]3CCCO3)C2)c1 [Example 728, 2-({2-chloro-5-cyano-3-[(1S,3S)-3-{[(2R)-oxolan-2-ylmethyl]amino}cyclohexyl]phenyl}amino)-4-(cyclopropylamino)imidazo [2,1-f][1,2,4]triazine-7-carbonitrile]	8.86

Reference: patent publication US9273057B2 (Bristol-Myers Squibb Company, priority 2012, dated 2016)
